Reference: PMC13427755 (Nature Communications, 2026)
Where a SMILES comes first, the peptide text is derived from it.

Assays:
Sprague Dawley rats = conditions: 28-day GLP inhalation study, delivered doses 18.4, 58.5 and 109.3 mg/kg/day, ref Investigator Brochure (IB); cited from earlier work
Description: (§1) Pivotal 28-day Good Laboratory Practice (GLP) toxicity studies were performed in rats and dogs. These studies were designed such that the high dose levels would achieve at least a 50-fold margin over the proposed high clinical dose as recommended in International Council for Harmonisation (ICH)-M3(R2) guidelines.

dog = conditions: 28-day GLP study, delivered doses 8.9, 27.1 and 46.1 mg/kg/day, ref Investigator Brochure (IB); cited from earlier work
Description: as §1

[1] = test system: chemokine (C-X-C motif) ligand 7 (CXCL7); test: CXCL7 ELISA in deep bronchial brushings (DBB); format: in vivo, human; conditions: for CXCL7 in DBB, Δ from baseline, median (IQR): Day 14 minus screening, N = 8; for CXCL7 in DBB, median difference vs placebo (Hodges-Lehmann): N = 8 vs pooled placebo N = 6
Text: Bronchoscopists were instructed to obtain a total of 6 brushings from 3 of the basilar bronchial segments of the right lower lobe: the anterior basilar segment, the lateral basilar segment, and the posterior basilar segment. With the bronchoscope proximal to or within the orifice of the appropriate basilar segment, the brush sheath was to be passed out 5 cm beyond the subsegment orifice, and then the brush was fully extended an additional 1 cm for a total of 6 cm beyond the orifice of the subsegmental bronchus. At the desired depth, the sheath was to be gently pulled back and forward for 15 strokes to brush the small airways. The brushing process was repeated using any combination of the 3 basilar segments described above, at the discretion of the bronchoscopist, for a total of 6 six separate brush samples.
Protein isolation and preparation of DBB samples for ELISAs were performed as previously described[47] according to manufacturer’s instructions for COL1A1 (#ab210966, abcam), CXCL7 (#LS-F4967-1, LS Bio), GAL7 (#DY1339, R&D Systems), IL-11 (#DY218, R&D Systems), and TSLP (#DY1398, R&D Systems).
Descriptive statistics are reported as medians with interquartile ranges (IQR). The Hodges-Lehmann estimator was used for the median difference between groups (treatment minus placebo), with approximate 90% confidence intervals (asymmetric, exact level varied slightly with small n). Cliff’s delta was calculated as effect size using the formula δ = (2U / (n1 × n2)) − 1, with thresholds: |δ | <0.3 small effect, 0.3–0.5 medium effect, >0.5 large effect. […] No adjustment for multiplicity was performed, as these were pre-specified, hypothesis-driven exploratory analyses. All biomarker statistical analyses were conducted using GraphPad Prism Version v10.0.

participants with IPF = test system: participants with IPF; parameters: species or system human; conditions: in vivo
Description: Safety and tolerability assessments were performed through treatment and follow-up and included evaluation of TEAEs, concomitant medications, physical examinations, vital signs, 12-lead ECGs, clinical laboratory assessments, spirometry, and cough symptoms using the validated LCQ[22] and a cough VAS. Spirometry was performed according to American Thoracic Society (ATS) / European Respiratory Society (ERS) Task Force guidelines[46] at all clinic visits, with assessments conducted both pre-and post-dose on study drug dosing days. Study staff monitored participants’ self-administration of the study drug (the morning dose) during on-site visits, and symptoms were monitored for at least 1h. […]
Exploratory biomarkers will be assessed in peripheral blood cells (as feasible), platelet rich plasma, BALF, BA samples, and deep bronchial brushings as outlined in Table 3. […]
LCQ total score is equal to the sum of the domain scores (total score range from 3 to 21) with a lower score indicating greater impairment of health status due to cough . […] If a response is not provided to a question, the domain score will be calculated as the average of the scores to the answered questions within the domain. If a subject responds to less than 80% of questions in a domain, the LCQ domain score will not be calculated and will be treated as missing during analysis. […]

## CC(C)[C@H](NC(=O)[C@@H](NC(=O)[C@H](Cc1ccccc1)NC(=O)[C@@H](NC(=O)[C@@H](NC(=O)[C@@H](N)Cc1ccccc1)[C@@H](C)O)[C@@H](C)O)[C@@H](C)O)C(=O)N[C@H](C(=O)O)[C@@H](C)O [LTI-03] (H-FTTFTVT-OH; N-terminus and C-terminus assumed)
Sprague Dawley rats
  no observed adverse effect level (NOAEL), achieved delivered dose: 109.3 mg/kg/day
dog
  no observed adverse effect level (NOAEL), achieved delivered dose: 46.1 mg/kg/day
[1]; 5 mg/day
  CXCL7 in DBB, Δ from baseline, median (IQR): −100.2 ng/mg protein
[1]; 5 mg/day, one-tailed Mann-Whitney p = 0.5
  CXCL7 in DBB, median difference vs placebo (Hodges-Lehmann): 8.265 ng/mg protein
[1]; 10 mg/day
  CXCL7 in DBB, Δ from baseline, median (IQR): −1276.23 ng/mg protein
[1]; 10 mg/day, one-tailed Mann-Whitney p = 0.0248
  CXCL7 in DBB, median difference vs placebo (Hodges-Lehmann): −1262 ng/mg protein
Participants with IPF
  change in LCQ total score during the treatment period: No clinically significant changes
  change in cough VAS during the treatment period: No clinically significant changes
